Experimental data as given in publication PMC11003488 (Journal of Enzyme Inhibition and Medicinal Chemistry, 2023).
Where two headings read alike, the source gives them in different places.

Assays:
[1] = system: NCI 60-cell line panel (full panel); experiment: NCI-60 SRB growth inhibition, full panel mean / MG-MID; format: cell-based, human; conditions: for GI50: Homo sapiens, 60 cell; for Full panel Mean GI %: mean over NCI-60 panel, single dose 10 µM
Renal cancer cell lines = experiment: NCI-60 SRB growth inhibition, subpanel; format: cell-based, human; conditions: for GI50: Homo sapiens
UACC-257 = experiment: NCI-60 SRB growth inhibition, one-dose and five-dose; format: cell-based; conditions: Homo sapiens; for GI50: UACC-257; for inhibition at 10 µM: UACC-257, read-out: percent growth inhibition
SF-295 = experiment: as above; format: cell-based; conditions: Homo sapiens; for GI50: SF-295; for inhibition at 10 µM: SF-295, read-out: percent growth inhibition
SF-539 = experiment: as above; format: cell-based; conditions: Homo sapiens; for GI50: SF-539; for inhibition at 10 µM: SF-539, read-out: percent growth inhibition
[2] = system: Prostate cancer cell lines; experiment: NCI-60 SRB growth inhibition, subpanel; format: cell-based, human; conditions: for GI50: Homo sapiens
OVCAR-3 = experiment: NCI-60 SRB growth inhibition, one-dose and five-dose; format: cell-based; conditions: Homo sapiens; for GI50: OVCAR-3; for inhibition at 10 µM: OVCAR-3, read-out: percent growth inhibition
COLO 205 = experiment: as above; format: cell-based; conditions: Homo sapiens; for GI50: COLO 205; for inhibition at 10 µM: COLO 205, read-out: percent growth inhibition
MOLT-4 = experiment: as above; format: cell-based; conditions: Homo sapiens; for GI50: MOLT-4; for inhibition at 10 µM: MOLT-4, read-out: percent growth inhibition
[3] = system: WI-38 normal human fibroblast cells; experiment: Cytotoxicity towards normal fibroblasts, safety index; format: cell-based; conditions: WI-38 versus cancer cell lines
[4] = as above; format: cell-based, human; conditions: human, WI-38 normal fibroblast cells
HCT-15 = experiment: NCI-60 SRB growth inhibition, one-dose and five-dose; format: cell-based; conditions: Homo sapiens; for GI50: HCT-15; for inhibition at 10 µM: HCT-15, read-out: percent growth inhibition
MDA-MB-231/ATCC = experiment: as above; format: cell-based; conditions: Homo sapiens; for GI50: MDA-MB-231
[5] = system: Ovarian cancer cell lines; experiment: NCI-60 SRB growth inhibition, subpanel; format: cell-based, human; conditions: for GI50: Homo sapiens
CNS cancer cell lines = experiment: NCI-60 SRB growth inhibition, subpanel; format: cell-based, human; conditions: for GI50: Homo sapiens
Leukaemia cell lines = experiment: NCI-60 SRB growth inhibition, subpanel; format: cell-based, human; conditions: for GI50: Homo sapiens
Breast cancer cell lines = experiment: NCI-60 SRB growth inhibition, subpanel; format: cell-based, human; conditions: for GI50: Homo sapiens
Melanoma cell lines = experiment: NCI-60 SRB growth inhibition, subpanel; format: cell-based, human; conditions: for GI50: Homo sapiens
OVCAR-5 = experiment: NCI-60 SRB growth inhibition, one-dose and five-dose; format: cell-based; conditions: Homo sapiens; for GI50: OVCAR-5; for inhibition at 10 µM: OVCAR-5, read-out: percent growth inhibition
Human VEGFR-2 = Human VEGFR-2 (Homo sapiens, UniProt P35968); experiment: VEGFR-2 inhibition assay; format: biochemical
Human VEGFR-2, sequence (P35968 20-1356): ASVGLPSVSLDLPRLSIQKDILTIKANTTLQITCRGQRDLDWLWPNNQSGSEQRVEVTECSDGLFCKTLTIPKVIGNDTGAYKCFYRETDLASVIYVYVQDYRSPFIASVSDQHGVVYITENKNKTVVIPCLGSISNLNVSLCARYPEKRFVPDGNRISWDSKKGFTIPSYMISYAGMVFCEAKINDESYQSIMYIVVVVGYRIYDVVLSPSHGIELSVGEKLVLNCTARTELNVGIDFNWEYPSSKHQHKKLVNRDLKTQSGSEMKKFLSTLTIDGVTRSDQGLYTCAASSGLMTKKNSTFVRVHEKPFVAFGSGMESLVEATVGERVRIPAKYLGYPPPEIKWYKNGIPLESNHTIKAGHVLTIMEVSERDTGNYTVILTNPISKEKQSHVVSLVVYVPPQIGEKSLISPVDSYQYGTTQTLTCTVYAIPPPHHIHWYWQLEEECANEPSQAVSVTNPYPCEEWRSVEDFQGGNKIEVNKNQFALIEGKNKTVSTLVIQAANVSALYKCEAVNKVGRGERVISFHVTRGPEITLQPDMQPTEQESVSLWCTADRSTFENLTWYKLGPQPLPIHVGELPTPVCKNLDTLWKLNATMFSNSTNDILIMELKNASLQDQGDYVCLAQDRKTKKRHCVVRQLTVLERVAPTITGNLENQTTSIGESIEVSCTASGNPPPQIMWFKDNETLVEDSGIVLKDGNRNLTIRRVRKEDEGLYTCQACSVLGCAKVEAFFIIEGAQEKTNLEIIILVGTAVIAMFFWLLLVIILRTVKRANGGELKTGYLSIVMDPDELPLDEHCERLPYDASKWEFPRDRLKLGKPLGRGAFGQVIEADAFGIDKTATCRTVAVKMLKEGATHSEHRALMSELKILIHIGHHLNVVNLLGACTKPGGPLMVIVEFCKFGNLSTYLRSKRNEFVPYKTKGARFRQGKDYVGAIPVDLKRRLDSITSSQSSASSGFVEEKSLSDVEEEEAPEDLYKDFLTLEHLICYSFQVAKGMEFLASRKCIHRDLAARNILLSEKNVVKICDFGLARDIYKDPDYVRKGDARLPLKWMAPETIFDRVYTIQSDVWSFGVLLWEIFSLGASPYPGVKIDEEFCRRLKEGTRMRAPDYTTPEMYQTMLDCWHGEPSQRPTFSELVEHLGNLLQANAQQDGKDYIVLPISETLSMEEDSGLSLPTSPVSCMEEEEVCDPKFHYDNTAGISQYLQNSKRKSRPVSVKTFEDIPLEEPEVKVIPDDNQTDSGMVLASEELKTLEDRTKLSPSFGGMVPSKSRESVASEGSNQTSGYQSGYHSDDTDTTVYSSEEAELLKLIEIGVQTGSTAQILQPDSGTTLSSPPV

HCT-116 = experiment: NCI-60 SRB growth inhibition, one-dose and five-dose; format: cell-based; conditions: Homo sapiens; for GI50: HCT-116, HCT-116, five-dose screening; for inhibition at 10 µM: HCT-116, read-out: percent growth inhibition
HL-60(TB) = experiment: cells; format: cell-based; conditions: Homo sapiens; for GI50: HL-60; for inhibition at 10 µM: HL-60, read-out: percent growth inhibition
IGROV1 = experiment: NCI-60 SRB growth inhibition, one-dose and five-dose; format: cell-based; conditions: Homo sapiens; for GI50: IGROV-1; for inhibition at 10 µM: IGROV-1, read-out: percent growth inhibition
NSCLC cell lines = experiment: NCI-60 SRB growth inhibition, subpanel; format: cell-based, human; conditions: for GI50: Homo sapiens
Colon cancer cell lines = experiment: NCI-60 SRB growth inhibition, subpanel; format: cell-based, human; conditions: for GI50: Homo sapiens
UO-31 = experiment: NCI-60 SRB growth inhibition, one-dose and five-dose; format: cell-based; conditions: Homo sapiens; for GI50: UO-31
SNB-19 = experiment: as above; format: cell-based; conditions: Homo sapiens; for GI50: SNB-19; for inhibition at 10 µM: SNB-19, read-out: percent growth inhibition
OVCAR-4 = experiment: as above; format: cell-based; conditions: Homo sapiens; for GI50: OVCAR-4; for inhibition at 10 µM: OVCAR-4, read-out: percent growth inhibition
RXF 393 = experiment: as above; format: cell-based; conditions: Homo sapiens; for GI50: RXF 393; for inhibition at 10 µM: RXF 393, read-out: percent growth inhibition
HS 578 T = experiment: as above; format: cell-based; conditions: Homo sapiens; for inhibition at 10 µM: read-out: percent growth inhibition

COc1ccc(CNc2cccc(C(=O)/C=C/c3cccnc3)c2)cc1OC [Compound 5c, (E)-1–(3-((3,4-dimethoxybenzyl)amino)phenyl)-3-(pyridin-3-yl)prop-2-en-1-one]
GI50 ([1]; read-out: Full panel GI50 mean): 7.67 µM | Full panel Mean GI % [1]: 87.75% | GI50 (Renal cancer cell lines; read-out: GI50 MG-MID): 9.08 µM | GI50 (UACC-257): 12.5 µM | inhibition at 10 µM (UACC-257): 34% | GI50 (SF-295): 10.4 µM | inhibition at 10 µM (SF-295): 53.7% | GI50 (SF-539): 12.4 µM | inhibition at 10 µM (SF-539): 162% | GI50 ([2]; read-out: GI50 MG-MID): 10.2 µM | GI50 (OVCAR-3): 2.74 µM | inhibition at 10 µM (OVCAR-3): 107% | GI50 (COLO 205): 16.5 µM | inhibition at 10 µM (COLO 205): 84.7% | GI50 (MOLT-4): 2.95 µM | inhibition at 10 µM (MOLT-4): 38.9% | Safety index [3]: >1 | GI50 at 48 h [4]: > 100 µM | GI50 (HCT-15): 2.01 µM | inhibition at 10 µM (HCT-15): 134% | GI50 (MDA-MB-231/ATCC): 2.96 µM | inhibition at 10 µM (MDA-MB-231/ATCC; MDA-MB-231, read-out: percent growth inhibition): 94.5% | GI50 ([5]; read-out: GI50 MG-MID): 8.65 µM | GI50 (CNS cancer cell lines; read-out: GI50 MG-MID): 9.11 µM | GI50 (Leukaemia cell lines; read-out: GI50 MG-MID): 2.6 µM | GI50 (Breast cancer cell lines; read-out: GI50 MG-MID): 5.96 µM | GI50 (Melanoma cell lines; read-out: GI50 MG-MID): 7.75 µM | GI50 (OVCAR-5): 13.9 µM | inhibition at 10 µM (OVCAR-5): 68.4% | IC50 (Human VEGFR-2): 0.96 ± 0.012 µM | GI50 (HCT-116): 1.94 µM | inhibition at 10 µM (HCT-116): 183% | GI50 (HL-60(TB)): 2.78 µM | inhibition at 10 µM (HL-60(TB)): 59.6% | GI50 (IGROV1): 11 µM | inhibition at 10 µM (IGROV1): 84.3% | GI50 (NSCLC cell lines; read-out: GI50 MG-MID): 11.2 µM | GI50 (Colon cancer cell lines; read-out: GI50 MG-MID): 4.45 µM | GI50 (UO-31): 10.5 µM | inhibition at 10 µM (UO-31; UO-31, read-out: percent growth inhibition): 65% | GI50 (SNB-19): 9.49 µM | inhibition at 10 µM (SNB-19): 41.3% | GI50 (OVCAR-4): 9.31 µM | inhibition at 10 µM (OVCAR-4): 80.1% | GI50 (RXF 393): 10.8 µM | inhibition at 10 µM (RXF 393): 64.9% | GI50 (HS 578 T): 14.3 µM | inhibition at 10 µM (HS 578 T): 98.3%

O=C(/C=C/c1cccnc1)c1cccc(NCc2csc3ccccc23)c1 [Compound 5d, (E)-1–(3-((benzo[b]thiophen-3-ylmethyl)amino)phenyl)-3-(pyridin-3-yl)prop-2-en-1-one]
GI50 ([1]; read-out: Full panel GI50 mean): 4.74 µM | GI50 ([1]; read-out: Full panel MG-MID GI50): 4.74 µM | Full panel Mean GI % [1]: 120.02% | GI50 (Renal cancer cell lines; read-out: GI50 MG-MID): 6.46 µM | GI50 (Renal cancer cell lines; read-out: MG-MID GI50): 6.46 µM | SI (Selectivity Index) (Renal cancer cell lines; full panel MG-MID / Renal Cancer subpanel MG-MID): 0.73 | GI50 (UACC-257): 5.58 µM | inhibition at 10 µM (UACC-257): 105% | GI50 (SF-295): 5.12 µM | inhibition at 10 µM (SF-295): 92.9% | GI50 (SF-539): 6.15 µM | inhibition at 10 µM (SF-539): 171% | GI50 ([2]; read-out: GI50 MG-MID): 5.56 µM | GI50 ([2]; read-out: MG-MID GI50): 5.56 µM | SI (Selectivity Index) ([2]; full panel MG-MID / Prostatic Cancer subpanel MG-MID): 0.85 | GI50 (OVCAR-3): 3.19 µM | inhibition at 10 µM (OVCAR-3): 157% | GI50 (COLO 205): 11.6 µM | inhibition at 10 µM (COLO 205): 86.5% | GI50 (MOLT-4): 3.16 µM | inhibition at 10 µM (MOLT-4): 114% | Safety index [3]: >1 | GI50 at 48 h [4]: > 100 µM | GI50 (HCT-15): 1.92 µM | inhibition at 10 µM (HCT-15): 141% | GI50 (MDA-MB-231/ATCC): 2.67 µM | GI50 ([5]; read-out: GI50 MG-MID): 5.3 µM | GI50 ([5]; read-out: MG-MID GI50): 5.3 µM | SI (Selectivity Index) ([5]; full panel MG-MID / Ovarian Cancer subpanel MG-MID): 0.89 | GI50 (CNS cancer cell lines; read-out: GI50 MG-MID): 5.4 µM | GI50 (CNS cancer cell lines; read-out: MG-MID GI50): 5.4 µM | SI (Selectivity Index) (CNS cancer cell lines; full panel MG-MID / CNS Cancer subpanel MG-MID): 0.88 | GI50 (Leukaemia cell lines; read-out: GI50 MG-MID): 2.76 µM | GI50 (Leukaemia cell lines; read-out: MG-MID GI50): 2.76 µM | SI (Selectivity Index) (Leukaemia cell lines; full panel MG-MID / leukaemia subpanel MG-MID): 1.72 | GI50 (Breast cancer cell lines; read-out: GI50 MG-MID): 2.69 µM | GI50 (Breast cancer cell lines; read-out: MG-MID GI50): 2.69 µM | SI (Selectivity Index) (Breast cancer cell lines; full panel MG-MID / Breast Cancer subpanel MG-MID): 1.76 | GI50 (Melanoma cell lines; read-out: GI50 MG-MID): 3.76 µM | GI50 (Melanoma cell lines; read-out: MG-MID GI50): 3.76 µM | SI (Selectivity Index) (Melanoma cell lines; full panel MG-MID / Melanoma subpanel MG-MID): 1.26 | GI50 (OVCAR-5): 7.07 µM | inhibition at 10 µM (OVCAR-5): 91.5% | IC50 (Human VEGFR-2): 1.46 ± 0.009 µM | GI50 (HCT-116): 1.82 µM | inhibition at 10 µM (HCT-116): 195% | GI50 (HL-60(TB)): 2.73 µM | inhibition at 10 µM (HL-60(TB)): 135% | GI50 (IGROV1): 3.32 µM | inhibition at 10 µM (IGROV1): 108% | GI50 (NSCLC cell lines; read-out: GI50 MG-MID): 6.83 µM | GI50 (NSCLC cell lines; read-out: MG-MID GI50): 6.83 µM | SI (Selectivity Index) (NSCLC cell lines; full panel MG-MID / NSCLC subpanel MG-MID): 0.69 | GI50 (Colon cancer cell lines; read-out: GI50 MG-MID): 3.93 µM | GI50 (Colon cancer cell lines; read-out: MG-MID GI50): 3.93 µM | SI (Selectivity Index) (Colon cancer cell lines; full panel MG-MID / Colon Cancer subpanel MG-MID): 1.21 | GI50 (UO-31): 4.94 µM | GI50 (SNB-19): 3.86 µM | inhibition at 10 µM (SNB-19): 134% | GI50 (OVCAR-4): 4.27 µM | inhibition at 10 µM (OVCAR-4): 82.5% | GI50 (RXF 393): 4.67 µM | inhibition at 10 µM (RXF 393): 177% | GI50 (HS 578 T): 4.49 µM | inhibition at 10 µM (HS 578 T): 76.9%
